Consider 13 compounds from patent US12208110B2 (priority 2020, dated 2025).

What all share (format): cell-based
Data set [1] in a line: MT4 cytotoxicity analysis (CellTiter-Glo). As to conditions: human. The protocol:
Example 79: MT4 Cytotoxicity Analysis
3-fold serially diluted compound in DMSO, ranging from 2.5 uM to 10 mM, were added by acoustic transfer (Echo) in quadruplicate into black 384-well plates at 200 nl/well. After compound addition, 40 ul MT-4 cells at 80,000/ml were added to each well using a MicroFlo liquid dispenser (BioTek, Winooski, VT) and the cells were cultured for five days at 37° C. Following the incubation, cell viability was determined by adding 35 μL of CellTiter-Glo viability reagent and mixed thoroughly using ViaFlo 384 well workstation. The mixture was incubated for at least 10 minutes at 25° C., and the luminescence signal was quantified on an EnVision plate reader.
(In general: ATP-based viability assays read luminescence as a measure of living cells.)

For another data set, the system named is SARS-CoV-2. As to the kind of experiment: microbe, parasite or virus in culture. As to conditions: Severe acute respiratory syndrome coronavirus 2, 48 h.
The subject of data set [2] is RSV-Fluc (Recombinant Respiratory Syncytial virus strain A2 containing the firefly luciferase reporter). As to the kind of experiment: microbe, parasite or virus in culture. Conditions: human respiratory syncytial virus, NHBE, 72 h, read-out: RSV-Fluc EC50 (nM, NHBE).
[3] abbreviates: MT-4 cells, five days, CellTiter-Glo, read-out: MT4 CC50.

Read-outs that look alike come from different tables or passages of the source.

With `CCCCCCCCCCCCCCCCCCOC[C@H](COP(=O)(O)OC[C@H]1O[C@@](C#N)(c2ccc3c(N)ncnn23)[C@H](O)[C@@H]1O)N1C(=O)c2ccccc2C1=O` [Example 15, ((2R,3S,4R,5R)-5-(4-aminopyrrolo[2,1-f][1,2,4]triazin-7-yl)-5-cyano-3,4-dihydroxytetrahydrofuran-2-yl)methyl ((R)-2-(1,3-dioxoisoindolin-2-yl)-3-(octadecyloxy)propyl) hydrogen phosphate], the CC50 at 5 days in data set [1] (MT4 CC50 (nM)) was 35000 nM. Besides, the EC50 in the data set on SARS-CoV-2 stood at 2500 nM; in data set [2], 140 nM.

`CCCCCCCCCCCCCCCCCCOC[C@H](COP(=O)(O)OC[C@H]1O[C@@](C#N)(c2ccc3c(N)ncnn23)[C@H](O)[C@@H]1O)Nc1cccc(C#N)c1` [Example 16, ((2R,3S,4R,5R)-5-(4-aminopyrrolo[2,1-f][1,2,4]triazin-7-yl)-5-cyano-3,4-dihydroxytetrahydrofuran-2-yl)methyl ((R)-2-((3-cyanophenyl)amino)-3-(octadecyloxy)propyl) hydrogen phosphate]: it took 1900 nM to reach half-maximal cytotoxicity in data set [1] (MT4 CC50 (nM)) (CC50 at 5 days). Further, the EC50 with SARS-CoV-2 worked out at 1100 nM; in data set [2], 100 nM.

On to `CCCCCCCCCCCCCCCCCCOC[C@H](COc1ccccc1)OP(=O)(O)OC[C@H]1O[C@@](C#N)(c2ccc3c(N)ncnn23)[C@H](O)[C@@H]1O` [Example 18, ((2R,3S,4R,5R)-5-(4-aminopyrrolo[2,1-f][1,2,4]triazin-7-yl)-5-cyano-3,4-dihydroxytetrahydrofuran-2-yl)methyl ((R)-1-(octadecyloxy)-3-phenoxypropan-2-yl) hydrogen phosphate], for which the CC50 at 5 days in data set [1] (setting [3]) worked out at 670 nM. In addition, the EC50 came to 1800 nM with SARS-CoV-2 and 69 nM in data set [2].

Take `CCCCCCCCCCCCCCCCCCOCCOP(=O)(O)OC[C@H]1O[C@@](C#N)(c2ccc3c(N)ncnn23)[C@H](O)[C@@H]1O` [Example 21, ((2R,3S,4R,5R)-5-(4-Aminopyrrolo[2,1-f][1,2,4]triazin-7-yl)-5-cyano-3,4-dihydroxytetrahydrofuran-2-yl)methyl (2-(octadecyloxy)ethyl) hydrogen phosphate]: the CC50 at 5 days in data set [1] (setting [3]) turned out to be 2300 nM. Moreover, the EC50 in the data set on SARS-CoV-2 came to 9100 nM; in data set [2], 250 nM.

For the compound `CCCCCCCCCCCCCCCCCCO[C@H](COCc1ccccc1)COP(=O)(O)OC[C@H]1O[C@@](C#N)(c2ccc3c(N)ncnn23)[C@H](O)[C@@H]1O` [Example 22, ((2R,3S,4R,5R)-5-(4-aminopyrrolo[2,1-f][1,2,4]triazin-7-yl)-5-cyano-3,4-dihydroxytetrahydrofuran-2-yl)methyl ((R)-3-(benzyloxy)-2-(octadecyloxy)propyl) hydrogen phosphate], the CC50 at 5 days in data set [1] (setting [3]) is 9600 nM. Besides, the EC50 in the data set with SARS-CoV-2 is 3900 nM; in data set [2], 150 nM.

For the compound `CCCCCCCCCCCCCCCCO[C@H](COCc1ccccc1)COP(=O)(O)OC[C@H]1O[C@@](C#N)(c2ccc3c(N)ncnn23)[C@H](O)[C@@H]1O` [Example 23, ((2R,3S,4R,5R)-5-(4-aminopyrrolo[2,1-f][1,2,4]triazin-7-yl)-5-cyano-3,4-dihydroxytetrahydrofuran-2-yl)methyl ((R)-3-(benzyloxy)-2-(hexadecyloxy)propyl) hydrogen phosphate], the CC50 at 5 days in data set [1] (setting [3]) came out at 23000 nM. The EC50 in the data set with SARS-CoV-2 worked out at 10000 nM; in data set [2], 83 nM.

Consider `CCCCCCCCCCCCCCO[C@H](COCc1ccccc1)COP(=O)(O)OC[C@H]1O[C@@](C#N)(c2ccc3c(N)ncnn23)[C@H](O)[C@@H]1O` [Example 24, ((2R,3S,4R,5R)-5-(4-Aminopyrrolo[2,1-f][1,2,4]triazin-7-yl)-5-cyano-3,4-dihydroxytetrahydrofuran-2-yl)methyl ((R)-3-(benzyloxy)-2-(tetradecyloxy)propyl) hydrogen phosphate], for which the CC50 at 5 days in data set [1] (setting [3]) was determined as 35000 nM. For the same compound, the EC50 with SARS-CoV-2 worked out at 9900 nM; in data set [2] it was 73 nM.

In data set [1] (MT4 CC50 (nM)), `CCCCCCCCCCCCCCCCCCOC[C@H](CO[P@@](=O)(S)OC[C@H]1O[C@@](C#N)(c2ccc3c(N)ncnn23)[C@H](O)[C@@H]1O)OCc1ccccc1` [Example 28, O-(((2R,3S,4R,5R)-5-(4-aminopyrrolo[2,1-f][1,2,4]triazin-7-yl)-5-cyano-3,4-dihydroxytetrahydrofuran-2-yl)methyl) O—((R)-2-(benzyloxy)-3-(octadecyloxy)propyl)S-hydrogen (R)-phosphorothioate] came in with a CC50 at 5 days of 24000 nM. For the same compound, the EC50 turned out to be 3800 nM in the data set on SARS-CoV-2 and 190 nM in data set [2].

In turn, `CCCCCCCCCCCCCCCCCCOC[C@H](COP(=O)(O)OC[C@H]1O[C@@](C#N)(c2ccc3c(N)ncnn23)[C@H](O)[C@@H]1O)Oc1c(C#N)cc(C)cc1C#N` [Example 29, ((2R,3S,4R,5R)-5-(4-aminopyrrolo[2,1-f][1,2,4]triazin-7-yl)-5-cyano-3,4-dihydroxytetrahydrofuran-2-yl)methyl ((R)-2-(2,6-dicyano-4-methylphenoxy)-3-(octadecyloxy)propyl) hydrogen phosphate] gave a CC50 at 5 days in data set [1] (MT4 CC50 (nM)) of 500 nM. For the same compound, the EC50 in the data set with SARS-CoV-2 amounted to 2700 nM; in data set [2], 70 nM.

In the case of `CCCCCCCCCCCCCCCCCCOC[C@H](COP(=O)(O)OC[C@H]1O[C@@](C#N)(c2ccc3c(N)ncnn23)[C@H](O)[C@@H]1O)Nc1ccccc1C(=O)O` [Example 31, 2-(((2R)-1-(((((2R,3S,4R,5R)-5-(4-aminopyrrolo[2,1-f][1,2,4]triazin-7-yl)-5-cyano-3,4-dihydroxytetrahydrofuran-2-yl)methoxy)(hydroxy)phosphoryl)oxy)-3-(octadecyloxy)propan-2-yl)amino)benzoic acid], the CC50 at 5 days in data set [1] (MT4 CC50 (nM)) was 38000 nM. Also, the EC50 with SARS-CoV-2 stood at 6300 nM; in data set [2] it was 260 nM.

In data set [1] (MT4 CC50 (nM)), `CCCCCCCCCCCCCCCCCCOC[C@H](COP(=O)(O)OC[C@H]1O[C@@](C#N)(c2ccc3c(N)ncnn23)[C@H](O)[C@@H]1O)OCc1cc(F)cc(S(C)(=O)=O)c1` [Example 32, ((2R,3S,4R,5R)-5-(4-aminopyrrolo[2,1-f][1,2,4]triazin-7-yl)-5-cyano-3,4-dihydroxytetrahydrofuran-2-yl)methyl ((R)-2-((3-fluoro-5-(methylsulfonyl)benzyl)oxy)-3-(octadecyloxy)propyl) hydrogen phosphate] gave a CC50 at 5 days of 340 nM. Besides, the values for the EC50 (in the data set on SARS-CoV-2; in data set [2]) were 120 nM and 40 nM, respectively.

As to `CCCCCCCCCCCCCCCCCCOC[C@H](COCc1cc(F)cc(C#N)c1)OP(=O)(O)OC[C@H]1O[C@@](C#N)(c2ccc3c(N)ncnn23)[C@H](O)[C@@H]1O` [Example 36, ((2R,3S,4R,5R)-5-(4-aminopyrrolo[2,1-f][1,2,4]triazin-7-yl)-5-cyano-3,4-dihydroxytetrahydrofuran-2-yl)methyl ((R)-1-((3-cyano-5-fluorobenzyl)oxy)-3-(octadecyloxy)propan-2-yl) hydrogen phosphate], half-maximal cytotoxicity in data set [1] (MT4 CC50 (nM)) (CC50 at 5 days) was put at 28000 nM. For the same compound, the EC50 stood at 1200 nM in the data set on SARS-CoV-2 and 190 nM in data set [2].

`CCCCCCCCCCCCCCCCCCOC[C@H](COc1cc(F)cc(C#N)c1)OP(=O)(O)OC[C@H]1O[C@@](C#N)(c2ccc3c(N)ncnn23)[C@H](O)[C@@H]1O` [Example 39, ((2R,3S,4R,5R)-5-(4-aminopyrrolo[2,1-f][1,2,4]triazin-7-yl)-5-cyano-3,4-dihydroxytetrahydrofuran-2-yl)methyl ((R)-1-(3-cyano-5-fluorophenoxy)-3-(octadecyloxy)propan-2-yl) hydrogen phosphate] gave a CC50 at 5 days in data set [1] (MT4 CC50 (nM)) of 2800 nM. For the same compound, the EC50 with SARS-CoV-2 was 190 nM; in data set [2], 78 nM.

In general, CC50 refers to the concentration at which the toxic effect on the cells reaches its halfway point. What is called EC50 is the concentration that produces a half-maximal response.
